In patent US20220395472A1 (Dermavant Sciences GmbH, priority 2021, published 2022):

System: adults with plaque psoriasis
Test: Long-term open-label extension study (PSOARING 3): Physician Global Assessment (PGA), treatment episodes, treatment success, remittive effect
Assay type: in vivo, human
Description: This extension study consisted of up to 40 weeks of treatment and a 4 week, safety follow up period.
At the completion of the Week 12 visit of the DB, pivotal Phase 3 study, eligibility of the subjects opting to enroll in this extension study was confirmed. Study visits during the treatment period for all subjects occurred every 4 weeks (±3 days). A phone call was performed at Week 2 (Day 15). Unscheduled visits may have occurred, as needed. Subjects who withdrew from this study before Week 40 returned to the study center for an Early Termination visit. The total duration of this extension study participation was 44 weeks. Subjects in this study were treated as follows based on their PGA score from the Week 12 visit in the DB, pivotal Phase 3 study (Study DMVT 505 3001 or Study DMVT 505 3002).
The PGA was used to assess the primary efficacy endpoint in this study. The PGA is a clinical tool for assessing the current state/severity of a subject's psoriasis at a given time point. It is a static, 5 point, morphological assessment of overall disease severity, as determined by the Investigator, using the clinical characteristics of erythema, scaling, and plaque thickness/elevation as guidelines; higher PGA scores represent more severe disease (0=clear, 1=almost clear, 2=mild, 3=moderate, and 4=severe). The BSA affected was not considered in scoring of the PGA. Variations of the PGA are frequently used in clinical studies because it is a simple assessment, similar to those used in clinical practice. The PGA was performed first, prior to the % BSA, PASI, and LTS assessments.
Time to event parameters, such as the time from treatment success to subsequent worsening (PGA≥2) or duration of treatment episode, were summarized by the Kaplan Meier product limit method using OC.

[1] = Week 40, LOCF, Tapinarof (Pivotal) group
[2] = Week 40, OC, Vehicle (Pivotal) group
[3] = Week 40 LOCF, Tapinarof (Pivotal)
[4] = Week 40 LOCF, Vehicle (Pivotal)
[5] = Week 40 OC, Tapinarof (Pivotal)

## CC(C)c1c(O)cc(/C=C/c2ccccc2)cc1O [Tapinarof, 3,5-Dihydroxy-4-isopropyl-trans-stilbene]
Week 16 OC, Vehicle (Pivotal)
  PGA Change from Baseline: Improved by 4: 1 (0.5) n (%)
  PGA Change from Baseline: No Change: 59 (28.2) n (%)
  PGA Change from Baseline: Worsened by 1: 6 (2.9) n (%)
  PGA Change from Baseline: Worsened by 2: 2 (1.0) n (%)
  PGA Change from Baseline: Worsened by 3: 0 (0.0) n (%)
  PGA Change from Baseline: Worsened by 4: 0 (0.0) n (%)
[1]
  Subjects with PGA=0: 15.4%
  Subjects with PGA=1: 30.0%
Week 40, LOCF, Vehicle (Pivotal) group
  Subjects with PGA=1: 27.4%
Week 40, OC, Tapinarof (Pivotal) group
  Subjects with PGA=1: 30.1%
[2]
  Subjects with PGA=0: 23.9%
  Subjects with PGA=1: 31.9%
Week 40 LOCF, Overall
  PGA 0 - Clear: 118 (15.8) n (%)
  PGA 1 - Almost Clear: 217 (29.1) n (%)
  PGA 2 - Mild: 253 (34.0) n (%)
  PGA 3 - Moderate: 146 (19.6) n (%)
  PGA 4 - Severe: 11 (1.5) n (%)
  PGA Change from Baseline: Improved by 1: 194 (26.1) n (%)
  PGA Change from Baseline: Improved by 2: 88 (11.9) n (%)
  PGA Change from Baseline: Improved by 3: 27 (3.6) n (%)
  PGA Change from Baseline: Improved by 4: 2 (0.3) n (%)
  PGA Change from Baseline: No Change: 282 (38.0) n (%)
  PGA Change from Baseline: Worsened by 2: 37 (5.0) n (%)
  PGA Change from Baseline: Worsened by 3: 4 (0.5) n (%)
  PGA Change from Baseline: Worsened by 4: 0 (0.0) n (%)
[3]
  PGA 0 - Clear: 76 (15.4) n (%)
  PGA 1 - Almost Clear: 148 (30.0) n (%)
  PGA 2 - Mild: 171 (34.7) n (%)
  PGA 3 - Moderate: 91 (18.5) n (%)
  PGA 4 - Severe: 7 (1.4) n (%)
  PGA Change from Baseline: Improved by 1: 110 (22.4) n (%)
  PGA Change from Baseline: Improved by 2: 31 (6.3) n (%)
  PGA Change from Baseline: Improved by 3: 5 (1.0) n (%)
  PGA Change from Baseline: Improved by 4: 1 (0.2) n (%)
  PGA Change from Baseline: No Change: 211 (43.0) n (%)
  PGA Change from Baseline: Worsened by 1: 95 (19.3) n (%)
  PGA Change from Baseline: Worsened by 2: 34 (6.9) n (%)
  PGA Change from Baseline: Worsened by 3: 4 (0.8) n (%)
  PGA Change from Baseline: Worsened by 4: 0 (0.0) n (%)
[4]
  PGA 0 - Clear: 42 (16.7) n (%)
  PGA 1 - Almost Clear: 69 (27.4) n (%)
  PGA 2 - Mild: 82 (32.5) n (%)
  PGA 3 - Moderate: 55 (21.8) n (%)
  PGA 4 - Severe: 4 (1.6) n (%)
  PGA Change from Baseline: Improved by 1: 84 (33.5) n (%)
  PGA Change from Baseline: Improved by 2: 57 (22.7) n (%)
  PGA Change from Baseline: Improved by 3: 22 (8.8) n (%)
  PGA Change from Baseline: Improved by 4: 1 (0.4) n (%)
  PGA Change from Baseline: No Change: 71 (28.3) n (%)
  PGA Change from Baseline: Worsened by 1: 13 (5.2) n (%)
  PGA Change from Baseline: Worsened by 2: 3 (1.2) n (%)
  PGA Change from Baseline: Worsened by 3: 0 (0.0) n (%)
  PGA Change from Baseline: Worsened by 4: 0 (0.0) n (%)
Week 40 OC, Overall
  PGA 0 - Clear: 68 (19.5) n (%)
  PGA 1 - Almost Clear: 107 (30.7) n (%)
  PGA 2 - Mild: 116 (33.2) n (%)
  PGA 3 - Moderate: 57 (16.3) n (%)
  PGA 4 - Severe: 1 (0.3) n (%)
  PGA Change from Baseline: Improved by 1: 99 (28.4) n (%)
  PGA Change from Baseline: Improved by 2: 46 (13.2) n (%)
  PGA Change from Baseline: Improved by 3: 19 (5.4) n (%)
  PGA Change from Baseline: Improved by 4: 1 (0.3) n (%)
  PGA Change from Baseline: No Change: 105 (30.1) n (%)
  PGA Change from Baseline: Worsened by 1: 55 (15.8) n (%)
  PGA Change from Baseline: Worsened by 2: 21 (6.0) n (%)
  PGA Change from Baseline: Worsened by 3: 3 (0.9) n (%)
  PGA Change from Baseline: Worsened by 4: 0 (0.0) n (%)
[5]
  PGA 0 - Clear: 41 (17.4) n (%)
  PGA 1 - Almost Clear: 71 (30.1) n (%)
  PGA 2 - Mild: 81 (34.3) n (%)
  PGA 3 - Moderate: 42 (17.8) n (%)
  PGA 4 - Severe: 1 (0.4) n (%)
  PGA Change from Baseline: Improved by 1: 58 (24.6) n (%)
  PGA Change from Baseline: Improved by 2: 19 (8.1) n (%)
  PGA Change from Baseline: Improved by 3: 2 (0.8) n (%)
  PGA Change from Baseline: Improved by 4: 0 (0.0) n (%)
  PGA Change from Baseline: No Change: 86 (36.4) n (%)
  PGA Change from Baseline: Worsened by 1: 48 (20.3) n (%)
  PGA Change from Baseline: Worsened by 2: 20 (8.5) n (%)
  PGA Change from Baseline: Worsened by 3: 3 (1.3) n (%)
  PGA Change from Baseline: Worsened by 4: 0 (0.0) n (%)
Week 40 OC, Vehicle (Pivotal)
  PGA 0 - Clear: 27 (23.9) n (%)
  PGA 1 - Almost Clear: 36 (31.9) n (%)
